TGI and GI50 data for eleven compounds are collected here from PubChem BioAssay (NCI).

Some test systems named below: U251 CNS; SK-MEL-28 melanoma; HOP-92 NSCLC; K-562 leukemia; SN12C renal; SK-MEL-2 melanoma; IGROV1 ovarian; A549 NSCLC; UACC-62 melanoma; PC-3 prostate.
What all share (assay): growth of human tumour cells (NCI), 48 h

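Grown in 96-well plates, cells were treated for 48 hours with each compound at five concentrations. Insufficient inhibition: endpoint recorded as highest concentration tested. GI50 = concentration required for 50% inhibition of growth. The concentration for full growth arrest is given as TGI.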

Consider `CC(C)(C)c1ccc2c(c1)S(=O)(=O)Nc1ccc(Cl)cc1NS(=O)(=O)c1cc(C(C)(C)C)ccc1OCCOCCOCCO2`, for which the TGI in the experiment on U251 CNS was > 100 µM; in the experiment with SK-MEL-28 melanoma, > 100 µM; in the experiment on HOP-92 NSCLC, 72.7 µM; with K-562 leukemia, > 100 µM; in the experiment with SN12C renal it was > 100 µM; in the experiment with SK-MEL-2 melanoma it was > 100 µM. In addition, the TGI in the experiment on IGROV1 ovarian, in the experiment on A549 NSCLC and in the experiment with UACC-62 melanoma was > 100 µM throughout.
Turning to `COC(c1ccc(C(C)(C)C)cc1)(c1ccc(C(C)(C)C)cc1)c1ccc(C(C)(C)C)cc1`, the TGI in the experiment on U251 CNS, in the experiment on SK-MEL-28 melanoma, with K-562 leukemia, with PC-3 prostate, in the experiment with SN12C renal and in the experiment on SK-MEL-2 melanoma was > 100 µM throughout. Moreover, the TGI in the experiment with IGROV1 ovarian, with A549 NSCLC and in the experiment with UACC-62 melanoma was > 100 µM throughout.
`COc1cccc(/C=N/[N-]C(=O)c2ccncc2)c1[O-].COc1cccc(/C=N/[N-]C(=O)c2ccncc2)c1[O-].[O]=[U](=[O])([OH2+])[OH2+]`: the GI50 in the experiment on U251 CNS is 4.34 µM; in the experiment with SK-MEL-28 melanoma it was 10 µM; in the experiment with HOP-92 NSCLC, 14.3 µM; in the experiment on K-562 leukemia it was 5.29 µM; with SN12C renal, 7.15 µM; in the experiment with SK-MEL-2 melanoma, 19.8 µM. Moreover, the GI50 in the experiment on IGROV1 ovarian is 9.59 µM; in the experiment with A549 NSCLC, 27.9 µM; with UACC-62 melanoma, 3.66 µM. Moreover, the TGI in the experiment with U251 CNS was 40.8 µM; with SK-MEL-28 melanoma, > 56.7 µM; in the experiment on HOP-92 NSCLC it was 54.5 µM; in the experiment on K-562 leukemia it was > 100 µM; in the experiment with SN12C renal, 32.5 µM; in the experiment on SK-MEL-2 melanoma, > 74 µM. The TGI in the experiment with IGROV1 ovarian was > 90.4 µM; in the experiment with A549 NSCLC, > 100 µM; with UACC-62 melanoma, 19.4 µM.
`COc1cc2c(/C=N\N=C(N)N)c[nH]c2cc1C`: the GI50 with U251 CNS was 13.2 µM; with K-562 leukemia, 17.1 µM; with PC-3 prostate, 14.3 µM; with SN12C renal it was 11.2 µM; in the experiment on SK-MEL-2 melanoma it was 32.7 µM; in the experiment with IGROV1 ovarian, 33.2 µM. Moreover, the GI50 is > 100 µM in the experiment on A549 NSCLC and 16 µM in the experiment with UACC-62 melanoma. In addition, the TGI in the experiment with U251 CNS is 27.3 µM; with K-562 leukemia it was 30.8 µM; in the experiment with PC-3 prostate it was 27.4 µM; in the experiment on SN12C renal, 37.5 µM; in the experiment on SK-MEL-2 melanoma it was > 100 µM; with IGROV1 ovarian, > 100 µM. The results for the TGI in the experiment on A549 NSCLC and in the experiment with UACC-62 melanoma were > 100 µM and 33 µM, respectively.
With `Nc1ccccc1C(=O)/C=C/c1c(O)ccc2ccccc12`, the TGI with U251 CNS, in the experiment on SK-MEL-28 melanoma, in the experiment on HOP-92 NSCLC, with K-562 leukemia, in the experiment on SN12C renal and in the experiment with SK-MEL-2 melanoma was > 100 µM throughout. The TGI in the experiment on IGROV1 ovarian, in the experiment with A549 NSCLC and in the experiment on UACC-62 melanoma was > 100 µM in each case.
With `N#CC(=Nc1ccccc1N(C(=O)c1ccccc1)C(=O)c1ccccc1)c1ccccc1`, the TGI was > 100 µM in the experiment on U251 CNS; > 100 µM in the experiment on SK-MEL-28 melanoma; > 93.3 µM in the experiment with HOP-92 NSCLC; > 60.9 µM in the experiment with K-562 leukemia; > 100 µM with SN12C renal; > 100 µM in the experiment with SK-MEL-2 melanoma. In addition, the TGI in the experiment on IGROV1 ovarian is > 100 µM; in the experiment on A549 NSCLC it was > 48.8 µM; with UACC-62 melanoma, > 100 µM.
`COC(=O)c1cc2c(o1)-c1nccc3c1c(nc1ccccc13)C2=O`: the GI50 is 5.05 µM in the experiment with U251 CNS; 11.5 µM with SK-MEL-28 melanoma; 1.96 µM in the experiment on HOP-92 NSCLC; 3.41 µM in the experiment with PC-3 prostate; 4.04 µM with SN12C renal; 1.4 µM in the experiment with IGROV1 ovarian. Also, the GI50 in the experiment with A549 NSCLC was 4.66 µM. Further, the TGI with U251 CNS turned out to be 38.9 µM; with SK-MEL-28 melanoma, 25.4 µM; in the experiment with HOP-92 NSCLC, 17.7 µM; with PC-3 prostate it was 29.6 µM; with SN12C renal, 18.1 µM; in the experiment with IGROV1 ovarian, 4.42 µM. Further, in the experiment on A549 NSCLC, the TGI is 21.1 µM.
Turning to `CCOC(=O)NC(=O)c1cn(C2CCCCC2)c(=O)[nH]c1=O`, the TGI in the experiment with U251 CNS, with SK-MEL-28 melanoma, with HOP-92 NSCLC, with K-562 leukemia, with SN12C renal and in the experiment on SK-MEL-2 melanoma was > 100 µM throughout. The TGI in the experiment on IGROV1 ovarian, in the experiment on A549 NSCLC and with UACC-62 melanoma was > 100 µM throughout.
On to `ClCCN(CCCl)c1ccc(CNc2ccccc2)cc1`, for which the GI50 in the experiment on U251 CNS was 4.43 µM; in the experiment with SK-MEL-28 melanoma, 36.8 µM; with K-562 leukemia it was 8.66 µM; with PC-3 prostate it was 11.6 µM; in the experiment with SN12C renal, 4 µM; with SK-MEL-2 melanoma it was 20.9 µM. The GI50 in the experiment on IGROV1 ovarian is 16 µM; in the experiment on A549 NSCLC it was 4.36 µM. The TGI was > 100 µM with U251 CNS; > 100 µM with SK-MEL-28 melanoma; > 100 µM in the experiment on K-562 leukemia; > 100 µM with PC-3 prostate; > 100 µM in the experiment on SN12C renal; 51 µM in the experiment on SK-MEL-2 melanoma. For the same compound, the TGI in the experiment with IGROV1 ovarian and in the experiment on A549 NSCLC was > 100 µM each time.
`O=C1CCCN1c1ccccc1I(=O)=O`: the GI50 with U251 CNS, in the experiment on SK-MEL-28 melanoma, with HOP-92 NSCLC, in the experiment with K-562 leukemia, in the experiment with SN12C renal and with SK-MEL-2 melanoma was > 100 µM each time. Further, the GI50 in the experiment with IGROV1 ovarian, in the experiment on A549 NSCLC and with UACC-62 melanoma was > 100 µM each time. For the same compound, the TGI with U251 CNS, in the experiment with SK-MEL-28 melanoma, in the experiment with HOP-92 NSCLC, with K-562 leukemia, with SN12C renal and in the experiment on SK-MEL-2 melanoma was > 100 µM in each case. Besides, the TGI in the experiment with IGROV1 ovarian, with A549 NSCLC and in the experiment with UACC-62 melanoma was > 100 µM in each case.
As to `Cc1ccccc1C1=[N+]([O-])c2ccc(Cl)cc2C1=O`, the TGI in the experiment on U251 CNS was 32 µM; with SK-MEL-28 melanoma, 35.9 µM; with HOP-92 NSCLC, 28 µM; in the experiment on K-562 leukemia, 24.1 µM; in the experiment on SN12C renal it was 28.5 µM; in the experiment on SK-MEL-2 melanoma, 46 µM. Further, the figures for the TGI in the experiment with IGROV1 ovarian, with A549 NSCLC and in the experiment on UACC-62 melanoma were 29.8 µM, 34.2 µM and 24.9 µM, respectively.
